The subject of experiment [1] is P. knowlesi PvDBP^OR/PkDBPβγ^KO. The settings on record: PvDBP-expressing P. knowlesi, at the concentrations tested.
In experiment [2] the test system is P. knowlesi wild-type A1-H.1.
For another experiment, the target named is PvDBP-RII (Plasmodium vivax, UniProt P22290, S353A/T257A/T422A). Description: biochemical. The format is binding.

Square brackets hold non-standard residues; d marks the D form. Peptide text beside a SMILES is read from it. sY = N[C@@H](Cc1ccc(OS(=O)(=O)O)cc1)C(=O)O

With “Ac-QLDFEDVWNSSYGVNDSFPDGDYDANLEL-NH2 [non-sulfated]”, the “growth inhibition (in words)” value is “no growth inhibition observed” in experiment [1] and “no inhibition observed” in experiment [2].
`CC(=O)N[C@@H](CCC(N)=O)C(=O)N[C@@H](CC(C)C)C(=O)N[C@@H](CC(=O)O)C(=O)N[C@@H](Cc1ccccc1)C(=O)N[C@@H](CCC(=O)O)C(=O)N[C@@H](CC(=O)O)C(=O)N[C@H](C(=O)N[C@@H](Cc1c[nH]c2ccccc12)C(=O)N[C@@H](CC(N)=O)C(=O)N[C@@H](CO)C(=O)N[C@@H](CO)C(=O)N[C@@H](Cc1ccc(OS(=O)(=O)O)cc1)C(=O)NCC(=O)N[C@H](C(=O)N[C@@H](CC(N)=O)C(=O)N[C@@H](CC(=O)O)C(=O)N[C@@H](CO)C(=O)N[C@@H](Cc1ccccc1)C(=O)N1CCC[C@H]1C(=O)N[C@@H](CC(=O)O)C(=O)NCC(=O)N[C@@H](CC(=O)O)C(=O)N[C@@H](Cc1ccc(O)cc1)C(=O)N[C@@H](CC(=O)O)C(=O)N[C@@H](C)C(=O)N[C@@H](CC(N)=O)C(=O)N[C@@H](CC(C)C)C(=O)N[C@@H](CCC(=O)O)C(=O)N[C@@H](CC(C)C)C(N)=O)C(C)C)C(C)C` [Y30-S] (Ac-QLDFEDVWNSS[sY]GVNDSFPDGDYDANLEL-NH2): on PvDBP-RII, the Kd (in general, the free concentration of one partner at which half of the binding sites on the other are occupied at equilibrium, for simple one-to-one binding) stood at 552 nM.
